{"source": "paper PMC4551558", "about": "“Differential inhibition of PDKs by phenylbutyrate and enhancement of pyruvate dehydrogenase complex activity by combination with dichloroacetate” (Journal of Inherited Metabolic Disease, 2015)", "key": {"PDK1": {"biological_target": "PDK1 (Homo sapiens, UniProt Q15118)", "sequence (Q15118 29-436)": "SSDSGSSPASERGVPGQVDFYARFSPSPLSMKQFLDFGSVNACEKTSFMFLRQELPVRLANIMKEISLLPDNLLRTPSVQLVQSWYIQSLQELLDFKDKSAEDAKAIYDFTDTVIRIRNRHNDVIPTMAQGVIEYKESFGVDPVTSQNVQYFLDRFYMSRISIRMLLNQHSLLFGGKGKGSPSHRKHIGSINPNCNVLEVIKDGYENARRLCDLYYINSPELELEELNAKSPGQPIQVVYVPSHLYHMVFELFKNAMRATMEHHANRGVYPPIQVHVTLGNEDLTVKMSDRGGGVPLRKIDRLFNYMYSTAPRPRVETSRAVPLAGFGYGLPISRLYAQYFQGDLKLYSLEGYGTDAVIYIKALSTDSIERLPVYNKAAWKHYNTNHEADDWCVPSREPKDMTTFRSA", "sequence (P08559 30-390 partner)": "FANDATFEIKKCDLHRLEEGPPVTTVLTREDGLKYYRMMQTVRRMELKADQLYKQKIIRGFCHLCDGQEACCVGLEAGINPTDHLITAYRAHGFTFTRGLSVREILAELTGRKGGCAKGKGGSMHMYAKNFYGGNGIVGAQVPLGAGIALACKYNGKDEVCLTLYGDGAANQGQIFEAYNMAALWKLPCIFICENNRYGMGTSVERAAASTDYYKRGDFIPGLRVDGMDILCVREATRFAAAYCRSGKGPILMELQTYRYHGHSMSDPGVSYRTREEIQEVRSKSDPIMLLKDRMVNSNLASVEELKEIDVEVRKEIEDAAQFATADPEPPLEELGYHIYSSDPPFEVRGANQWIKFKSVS", "assay": "[…]-phosphate incorporation into recombinant E1alpha by recombinant human PDK1; Lineweaver-Burk kinetics", "assay_type": "biochemical", "conditions": "read-out: Ki (phenylbutyrate)"}, "PDK3": {"biological_target": "PDK3 (Homo sapiens, UniProt Q15120)", "sequence (Q15120 whole entry)": "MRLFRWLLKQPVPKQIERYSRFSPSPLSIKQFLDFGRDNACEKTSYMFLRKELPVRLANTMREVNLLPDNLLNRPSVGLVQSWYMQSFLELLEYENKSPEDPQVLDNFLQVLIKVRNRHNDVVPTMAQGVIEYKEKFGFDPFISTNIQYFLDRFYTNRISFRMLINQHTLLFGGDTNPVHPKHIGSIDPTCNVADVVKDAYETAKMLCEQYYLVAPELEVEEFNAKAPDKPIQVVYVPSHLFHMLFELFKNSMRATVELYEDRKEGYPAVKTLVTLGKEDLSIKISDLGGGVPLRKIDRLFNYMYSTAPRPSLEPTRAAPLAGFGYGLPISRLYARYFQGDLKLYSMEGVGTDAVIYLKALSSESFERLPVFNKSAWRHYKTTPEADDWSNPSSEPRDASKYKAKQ", "sequence (P08559 30-390 partner)": "as the sequence (P08559 30-390 partner) above", "assay": "[…]-phosphate incorporation into recombinant E1alpha by recombinant human PDK3; Lineweaver-Burk kinetics", "assay_type": "biochemical", "conditions": "read-out: Ki (phenylbutyrate)"}}}
{"smiles": "O=C(O)CCCc1ccccc1", "note": "[PB, phenylbutyrate]", "values": [{"measurement": "Ki", "setting": "PDK1", "value": "7.1 ± 0.15", "unit": "mM"}, {"measurement": "Ki", "setting": "PDK3", "value": "0.98 ± 0.19", "unit": "mM"}]}
